From patent EP4631968A1, “PEPTIDE FOR CARTILAGE REGENERATION, AND USES THEREOF” (Caregen Co., Ltd., priority 2022, dated 2024) come the findings set out here.

Common to all, as to assay type: cell-based
The subject of series [1] is human adipose-derived mesenchymal stem cells (AD-MSC). In words: Cell morphology changes, SRB staining. The settings on record: different concentrations, after 7 days. How it is done: Additionally, for SRB staining, after suctioning the medium from the plate, 60 µL of 3.7 % formalin was added to the 96-well plate to be stained and fixed for 1 minute. After suctioning 3.7 % formalin, 70 µL of SRB staining solution (sulforhodamine B sodium salt (sigma, S9012): 0.2 g in 100 mL DDW) was added and stained. The plate was covered with aluminum foil, blocked from light, and incubated overnight at room temperature. After washing with 100 µL of 1 % acetic acid using a multi-pipette, it was dried and observed under a microscope.
On the technique in general: The SRB assay estimates cell density from bound dye.

For series [2], the system named is human-derived chondrocytes (C28/I2, human chondrocyte cell line). In words: Cytotoxicity, CCK-8 assay. The following applies: C28/I2 cells, different concentrations, after 3 days, 450 nm. How it is done:
The cytotoxicity of Peptide-1 or Peptide-2 upon addition to human-derived chondrocytes (C28/I2, human chondrocyte cell line) was analyzed using a CCK-8 assay.
Specifically, human-derived chondrocytes were seeded in a 96-well plate at a density of 3 × 10^3 cells/well and cultured in DMEM medium (cat. 11995-065, Gibco) for 24 hours. […] Meanwhile, as a negative control group, an experimental group to which the peptide was not added was used.

In series [3] the test system is human adipose-derived mesenchymal stem cells (AD-MSC). Description: Cytotoxicity, CCK-8 assay. The following applies: different concentrations, after 7 days, 450 nm. On the technique in general: Tetrazolium assays rely on reduction of a dye to a coloured formazan, in cell work by metabolically active cells.

Where no end group is shown, it is not given here.

For the substance SSFYF [Peptide-2, SSFYF], the “change in cell morphology in SRB staining” value in series [1] is on record as “did not show any change in cell morphology”. Further, the “toxicity (CCK-8 activity)” value in series [2] and in series [3] was “did not exhibit toxicity” each time.
With “KVSYAAEKNRKNY [Peptide-1, KVSYAAEKNRKNY]”, the “change in cell morphology in SRB staining” value in series [1] is on record as “did not show any change in cell morphology”. In addition, the “toxicity (CCK-8 activity)” value in series [2] and in series [3] was “did not exhibit toxicity” each time.
